In patent publication US20230330133A1, “METHODS FOR THE TREATMENT OF CHOLESTEROL CRYSTAL EMBOLIZATION WITH CYCLODEXTRINS” (Beren Therapeutics P.B.C., priority 2020, published 2023):

Assays:
[1] = human subject, i.v. 500-1,000 mg/kg every 4 weeks, FIGS. 2A-2C
Description: (§1) A human subject was treated with 2-hydroxypropyl-beta-cyclodextrin with single-ascending doses administered intravenously every 4 weeks according to Table 1 below.
In this Example, a human subject was treated with 2-hydroxypropyl-beta-cyclodextrin according to Example 1, and plasma levels of 24S-hydroxycholesterol and 27-hydroxycholesterol were measured. […] 27-hydroxycholesterol is an endogenous LXR ligand leading to a downstream anti-inflammatory gene signature which may, in some embodiments, address the detrimental inflammatory response via NLRP3 inflammasome effects of cholesterol crystal embolization. The elevated 27-hydroxycholesterol is also a cellular marker of macrophage activation and increased activity for cholesterol crystal phagocytosis and clearance.

[2] = pre-dose human plasma incubated ex vivo with the substance; FIG. 1B
Description: (§2) For each dose, whole blood was collected pre-dose, post-dose (line flush), 1 hour post-dose, and 24 hours post-dose. Plasma was separated from the whole blood and subjected to a cholesterol crystal dissolution capacity (CCDC) assay using techniques similar to those described in the literature. The CCDC assay measures the ability of a sample to dissolve cholesterol crystals.
Blood plasma pre-dose was also incubated ex vivo with 2-hydroxypropyl-beta-cyclodextrin and the ability of the plasma to dissolve cholesterol crystals was measured.

[3] = tested on: ABCA1; details: peripheral blood, human subject, i.v. 500-1,000 mg/kg every 4 weeks; FIGS. 3A-3D
Description: as §1
(§3) In this Example, a human subject was treated with 2-hydroxypropyl-beta-cyclodextrin according to Example 1, and mRNA levels of the LXR transcription factor-regulated genes, ABCA1 and ABCG1, were measured. […] ABCA1 and ABCG1 are important cholesterol transporters and are responsible for cholesterol efflux from cells, loading of HDL particles for reverse cholesterol transport (RCT), and excretion via the hepatic pathway, to potentially reduce the cholesterol and cholesterol crystal emboli released into the vasculature and stabilize ruptured atherosclerotic plaque.

[4] = tested on: ABCG1; details: peripheral blood, human subject, i.v. 500-1,000 mg/kg every 4 weeks; FIGS. 3A-3D
Description: as §1, §3

[5] = human subject, single-ascending i.v. doses 500-1,000 mg/kg every 4 weeks; after treatment vs pre-dose; FIG. 1A
Description: as §2, with “A human subject was treated with 2-hydroxypropyl-beta-cyclodextrin with single-ascending doses administered intravenously every 4 weeks according to Table 1 below. […] For” for “For”

**Q.** Which “plasma levels of 24S-hydroxycholesterol” value [1] does the source give for 2-hydroxypropyl-beta-cyclodextrin here?
**A.** increased

**Q.** And the “plasma levels of 27-hydroxycholesterol” value [1]?
**A.** increased

**Q.** And the total cholesterol levels ([1]; plasma)?
**A.** remained stable

**Q.** What about the “capacity of plasma to dissolve cholesterol crystals (CCDC)” value [2] of the same substance?
**A.** increased capacity to dissolve cholesterol crystals

**Q.** And the “mRNA levels of ABCA1” value [3]?
**A.** increased

**Q.** And the “mRNA levels of ABCG1” value [4]?
**A.** increased

**Q.** What about the “capability of blood plasma to dissolve cholesterol crystals (CCDC)” value [5] of the same substance?
**A.** increased capability of blood plasma to dissolve cholesterol crystals
